Measured values as given in PubChem BioAssay (NCI).
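Briefly, cells in 96-well plates were exposed to five compound concentrations for 48 h, and endpoints were estimated by linear interpolation. GI50 marks 50% less growth. TGI: total growth inhibition.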

Tests used:
Experiment in all cases: NCI-60 cell line screen, 48 h
[1] = tested on: NCI-H460 lung
[2] = tested on: OVCAR-3 ovarian
[3] = tested on: OVCAR-8 ovarian
[4] = tested on: SK-MEL-5 melanoma
[5] = tested on: IGROV1 ovarian
[6] = tested on: UACC-257 melanoma
[7] = tested on: U251 CNS
[8] = tested on: SK-MEL-2 melanoma
[9] = tested on: MCF7 breast
[10] = tested on: MALME-3M melanoma

Row | Compound | GI50 [1] | TGI [1] | GI50 [2] | TGI [2] | GI50 [3] | TGI [3] | GI50 [4] | TGI [4] | GI50 [5] | TGI [5] | GI50 [6] | TGI [6] | GI50 [7] | TGI [7] | GI50 [8] | TGI [8] | GI50 [9] | TGI [9] | TGI [10] | GI50 [10]
1 | CCSCC1CC(O)(c2ccccc2)C(c2ccccc2)C(c2ccc(F)cc2)O1 (stereo not drawn) | 1.83 µM | 4.01 µM | 2.19 µM | 5.26 µM | 2.64 µM | 8.54 µM | 1.47 µM | 2.82 µM | 2.68 µM | 7.12 µM | 2.1 µM | 4.88 µM | 1.75 µM | 3.91 µM | 1.98 µM | 4 µM | 2.25 µM | 6.81 µM | – | –
2 | COc1cc(/C=C/c2csnn2)cc(OC)c1OC | – | > 100 µM | – | > 100 µM | – | > 100 µM | – | > 100 µM | – | > 100 µM | – | > 100 µM | – | > 100 µM | – | > 100 µM | – | – | > 100 µM | –
3 | CC(C)[C@@H]1CC[C@]2(CO2)[C@@H]2C(=O)OCC(C(=O)O)=C[C@H]21 | 0.402 µM | > 100 µM | 0.47 µM | > 100 µM | 0.351 µM | > 100 µM | 0.348 µM | 1.51 µM | 0.442 µM | 8.73 µM | – | – | 0.343 µM | > 100 µM | 0.208 µM | 0.407 µM | 0.824 µM | > 100 µM | 5.31 µM | 0.305 µM
4 | Cc1ccccc1C(CCCO)C(=O)O (stereo not drawn) | – | > 100 µM | – | > 100 µM | – | > 100 µM | – | > 100 µM | – | > 100 µM | – | > 100 µM | – | > 100 µM | – | > 100 µM | – | – | > 100 µM | –
5 | ClCCOCCn1cnc2c(Cl)nc(Cl)nc21 | 5.57 µM | 19.2 µM | 4.68 µM | 15.4 µM | 10.3 µM | 26.5 µM | 12.5 µM | 25.5 µM | 3.34 µM | 12.7 µM | 14.1 µM | 28.5 µM | 12.3 µM | 24.7 µM | – | – | 3.57 µM | 21.4 µM | 28.2 µM | 13.1 µM
6 | COc1ccc2nc(NC(=O)C(=O)CC(=O)c3ccc([N+](=O)[O-])cc3)sc2c1 | – | > 100 µM | – | > 100 µM | – | > 100 µM | – | > 100 µM | – | > 100 µM | – | > 100 µM | – | > 100 µM | – | > 100 µM | – | – | > 100 µM | –
7 | CC(=O)Oc1ccc(C2=Cc3ccc(OC(C)=O)cc3OC2C)cc1 (stereo not drawn) | 3.35 µM | 13.2 µM | 3.33 µM | 15.3 µM | 4.41 µM | > 100 µM | 7.24 µM | 29.9 µM | 3.41 µM | 17 µM | 15 µM | 64.1 µM | 4.91 µM | 79.9 µM | 23.4 µM | 78.5 µM | 6.28 µM | 52.3 µM | – | –
8 | NC1=NC(Cn2nc(-c3ccccc3)c3ccccc3c2=O)=NNC(=O)N1 | – | > 100 µM | – | > 100 µM | – | > 100 µM | – | > 100 µM | – | > 100 µM | – | > 100 µM | – | > 100 µM | – | > 100 µM | – | – | > 100 µM | –
9 | O=[N+]([O-])c1ccc(-c2ccc(C3=Nn4c(CNc5ccccc5Cl)nnc4SC3)o2)cc1 | – | > 100 µM | – | > 100 µM | – | > 100 µM | – | – | – | > 100 µM | – | > 100 µM | – | > 100 µM | – | > 100 µM | – | – | > 100 µM | –
10 | Cc1ccc(S(=O)(=O)NCCCCC(N)C(=O)O)cc1 (stereo not drawn) | – | > 100 µM | – | > 100 µM | – | > 100 µM | – | > 100 µM | – | > 100 µM | – | > 100 µM | – | > 100 µM | – | – | – | > 100 µM | > 100 µM | –
11 | CCOC(=O)/C(=C/c1ccccn1)C(=O)c1ccccc1 | – | > 62.8 µM | – | 27.4 µM | – | 31.4 µM | – | 28.6 µM | – | 32.8 µM | – | 27.9 µM | – | 27.4 µM | – | 28.9 µM | – | – | 27.3 µM | –
12 | O=C1CC(c2ccc(Cl)cc2)=Nc2ccccc2N1 | – | > 100 µM | – | > 100 µM | – | 76.6 µM | – | > 100 µM | – | > 100 µM | – | > 100 µM | – | 75.6 µM | – | > 100 µM | – | – | > 100 µM | –
13 | O=C1C2C3C=CC(C2C(=O)N1CO)C1C2C(=O)N(CO)C(=O)C2C31 (stereo not drawn) | – | > 54.5 µM | – | > 100 µM | – | > 75.8 µM | – | > 100 µM | – | > 100 µM | – | > 100 µM | – | > 100 µM | – | > 100 µM | – | – | > 100 µM | –
14 | Cc1nc2ccccc2c(=O)n1/N=C(\N=Nc1ccccc1Cl)c1ccccc1Cl | – | > 100 µM | – | – | – | > 100 µM | – | > 100 µM | – | > 100 µM | – | – | – | > 100 µM | – | – | – | – | – | –
15 | CN1CCOC(C(NC(=O)c2ccccc2)c2ccccc2)C1=O (stereo not drawn) | – | > 100 µM | – | > 100 µM | – | > 100 µM | – | > 100 µM | – | > 100 µM | – | > 100 µM | – | > 100 µM | – | > 100 µM | – | – | > 100 µM | –
16 | CC(=O)OCC(=O)[C@@]1(O)CC[C@H]2[C@@H]3C[C@H](C)C4=CC(=O)C=C[C@]4(C)[C@@]3(F)[C@@H](O)C[C@@]21C | – | > 100 µM | – | > 100 µM | – | – | – | > 100 µM | – | > 100 µM | – | > 100 µM | – | > 100 µM | – | > 100 µM | – | – | > 100 µM | –
17 | CC(=O)Nc1ccc(C2CC(c3ccc([N+](=O)[O-])cc3)=Nc3ccccc3S2=O)cc1 (stereo not drawn) | – | 47.9 µM | – | 54.7 µM | – | 89.2 µM | – | 48.4 µM | – | 34.7 µM | – | 95.3 µM | – | – | – | > 100 µM | – | – | – | –
18 | CC(=O)[CH-]C(=O)c1ccccc1.[C-]#[O+].[C-]#[O+].[Ir] | > 10 µM | > 10 µM | – | – | > 100 µM | > 100 µM | > 100 µM | > 100 µM | > 100 µM | > 100 µM | > 100 µM | > 100 µM | > 100 µM | > 100 µM | > 100 µM | > 100 µM | – | – | > 100 µM | > 100 µM
19 | O=C(NCCc1ccccc1)C1C(=O)C(=O)N(CCc2ccccc2)C1=O (stereo not drawn) | – | – | – | > 100 µM | – | – | – | – | – | > 100 µM | – | > 100 µM | – | > 100 µM | – | > 100 µM | – | – | > 100 µM | –
